Results taken from patent US7495104B2, “Quinoline or quinazoline derivatives inhibiting auto-phosphorylation of fibroblast growth factor receptors” (Kirin Beer Kabushiki Kaisha, priority 2001, dated 2009).

target: Bek (Homo sapiens, UniProt P21802); experiment: Inhibitory activity against Bek-autophosphorylation using ELISA method in OCUM-2MD3 cells; type: cell-based; details: 1 hr with compound, read-out: IC50 (concentration necessary for inhibiting 50% of Bek-phosphorylation)
Method in brief: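 Sandwich ELISA (anti-phosphotyrosine capture, anti-Bek detection, peroxidase, 450 nm) measured Bek autophosphorylation in OCUM-2MD3 lysates after 1 hr compound treatment at 37° C in 0.1% serum medium. IC50 derived by scaling between no-drug (100%) and excess positive control at 1000 nM (0%).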

Sequence of Bek (P21802 431-767 limits assumed): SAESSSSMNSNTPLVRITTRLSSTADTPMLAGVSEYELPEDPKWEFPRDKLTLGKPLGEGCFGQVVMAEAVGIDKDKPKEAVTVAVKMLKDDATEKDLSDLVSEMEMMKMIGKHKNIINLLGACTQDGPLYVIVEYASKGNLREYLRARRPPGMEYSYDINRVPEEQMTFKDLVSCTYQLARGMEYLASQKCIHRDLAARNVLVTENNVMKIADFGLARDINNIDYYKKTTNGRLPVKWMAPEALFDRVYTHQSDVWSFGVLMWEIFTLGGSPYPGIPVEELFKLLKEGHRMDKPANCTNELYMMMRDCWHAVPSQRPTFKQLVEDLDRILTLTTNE

Structure (SMILES) | IC50
COc1cc2c(Oc3ccc(NC(=O)NCCC(C)(C)C)c(Cl)c3)ccnc2cc1OCCCN1CCCC1 [Compound 179, 1-{2-Chloro-4-[6-methoxy-7-(3-pyrrolidin-1-yl-propoxy)-quinolin-4-yloxy]-phenyl}-3-(3,3-dimethyl-butyl)-urea] | 17.3 nM
COc1cc2c(Oc3ccc(NC(=O)NCCC(C)(C)C)c(Cl)c3)ccnc2cc1OCCCN1CCCCC1 [Compound 180, 1-{2-Chloro-4-[6-methoxy-7-(3-piperidin-1-yl-propoxy)-quinolin-4-yloxy]-phenyl}-3-(3,3-dimethyl-butyl)-urea] | 22.7 nM
COc1cc2c(Oc3ccc(NC(=O)NCCC(C)(C)C)c(Cl)c3)ccnc2cc1OCCCN1CCCCCC1 [Compound 181, 1-{4-[7-(3-Azepan-1-yl-propoxy)-6-methoxy-quinolin-4-yloxy]-2-chloro-phenyl}-3-(3,3-dimethyl-butyl)-urea] | 26.2 nM
COc1cc2c(Oc3ccc(NC(=O)NCCC(C)(C)C)c(Cl)c3)ccnc2cc1OCCCN(CCO)CCO [Compound 184, 1-[4-(7-{3-[Bis-(2-hydroxy-ethyl)-amino]-propoxy}-6-methoxy-quinolin-4-yloxy)-2-chloro-phenyl]-3-(3,3-dimethyl-butyl)-urea] | 9.2 nM
COc1cc2c(Oc3ccc(NC(=O)NCCC(C)(C)C)c(Cl)c3)ccnc2cc1OCCN1CCCCCC1 [Compound 185, 1-{4-[7-(2-Azepan-1-yl-ethoxy)-6-methoxy-quinolin-4-yloxy]-2-chloro-phenyl}-3-(3,3-dimethyl-butyl)-urea] | 54.8 nM
COc1cc2c(Oc3ccc(NC(=O)NCCC(C)(C)C)c(Cl)c3)ccnc2cc1OCCN1CCCN(C)CC1 [Compound 186, 1-(2-Chloro-4-{6-methoxy-7-[2-(4-methyl-[1,4]diazepan-1-yl)-ethoxy]-quinolin-4-yloxy}-phenyl)-3-(3,3-dimethyl-butyl)-urea] | 18.3 nM
COc1cc2c(Oc3ccc(NC(=O)NCCC(C)(C)C)c(Cl)c3)ccnc2cc1OCC1CCCNC1 (centres unmarked) [Compound 190, 1-{2-Chloro-4-[6-methoxy-7-(piperidin-3-ylmethoxy)-quinolin-4-yloxy]-phenyl}-3-(3,3-dimethyl-butyl)-urea] | 33.5 nM
COc1cc2c(Oc3ccc(NC(=O)NCCC(C)(C)C)c(Cl)c3)ccnc2cc1OCC(O)CN1CCCCC1 (centres unmarked) [Compound 193, 1-{2-Chloro-4-[7-(2-hydroxy-3-piperidin-1-yl-propoxy)-6-methoxy-quinolin-4-yloxy]-phenyl}-3-(3,3-dimethyl-butyl)-urea] | 17.4 nM
COc1cc2c(Oc3ccc(NC(=O)NCCC(C)(C)C)c(Cl)c3)ccnc2cc1OCC(O)CN1CCOCC1 (centres unmarked) [Compound 195, 1-{2-Chloro-4-[7-(2-hydroxy-3-morpholin-4-yl-propoxy)-6-methoxy-quinolin-4-yloxy]-phenyl}-3-(3,3-dimethyl-butyl)-urea] | < 10 nM
COc1cc2c(Oc3ccc(NC(=O)NCCC(C)(C)C)c(Cl)c3)ccnc2cc1OCC(O)CN1CCCN(C)CC1 (centres unmarked) [Compound 196, 1-(2-Chloro-4-{7-[2-hydroxy-3-(4-methyl-[1,4]diazepan-1-yl)-propoxy]-6-methoxy-quinolin-4-yloxy}-phenyl)-3-(3,3-dimethyl-butyl)-urea] | 17.3 nM
COc1cc2c(Oc3ccc(NC(=O)NCCC(C)(C)C)c(Cl)c3)ccnc2cc1OC[C@@H](O)CN1CCOCC1 [Compound 197, 1-{2-Chloro-4-[7-(2-hydroxy-3-morpholin-4-yl-propoxy)-6-methoxy-quinolin-4-yloxy]-phenyl}-3-(3,3-dimethyl-butyl)-urea] | < 10 nM
COc1cc2c(Oc3ccc(NC(=O)NCCC(C)(C)C)c(Cl)c3)ccnc2cc1OCC(O)CN(C)C (centres unmarked) [Compound 199, 1-{2-Chloro-4-[7-(3-dimethylamino-2-hydroxy-propoxy)-6-methoxy-quinolin-4-yloxy]-phenyl}-3-(3,3-dimethyl-butyl)-urea] | < 10 nM

Continued, values first:

IC50 | Structure (SMILES)
< 10 nM | COc1cc2c(Oc3ccc(NC(=O)NCCC(C)(C)C)c(Cl)c3)ccnc2cc1OCCCN(C)CCO [Compound 178, 1-[2-Chloro-4-(7-{3-[(2-hydroxy-ethyl)-methyl-amino]-propoxy}-6-methoxy-quinolin-4-yloxy)-phenyl]-3-(3,3-dimethyl-butyl)-urea]
9.5 nM | COc1cc2c(Oc3ccc(NC(=O)NCCC(C)(C)C)c(Cl)c3)ccnc2cc1OCCCN1CCOCC1 [Compound 182, 1-{2-Chloro-4-[6-methoxy-7-(3-morpholin-4-yl-propoxy)-quinolin-4-yloxy]-phenyl}-3-(3,3-dimethyl-butyl)-urea]
15.4 nM | CCN(CC)CCCOc1cc2nccc(Oc3ccc(NC(=O)NCCC(C)(C)C)c(Cl)c3)c2cc1OC [Compound 183, 1-{2-Chloro-4-[7-(3-diethylamino-propoxy)-6-methoxy-quinolin-4-yloxy]-phenyl}-3-(3,3-dimethyl-butyl)-urea]
22.3 nM | COc1cc2c(Oc3ccc(NC(=O)NCCC(C)(C)C)c(Cl)c3)ccnc2cc1OCCCN1CCN(C)CC1 [Compound 187, 1-(2-Chloro-4-{6-methoxy-7-[3-(4-methyl-piperazin-1-yl)-propoxy]-quinolin-4-yloxy}-phenyl)-3-(3,3-dimethyl-butyl)-urea]
29.9 nM | COc1cc2c(Oc3ccc(NC(=O)NCCC(C)(C)C)c(Cl)c3)ccnc2cc1OCCCN1CCCN(C)CC1 [Compound 188, 1-(2-Chloro-4-{6-methoxy-7-[3-(4-methyl-[1,4]diazepan-1-yl)-propoxy]-quinolin-4-yloxy}-phenyl)-3-(3,3-dimethyl-butyl)-urea]
10.6 nM | CCN(CC)CC(O)COc1cc2nccc(Oc3ccc(NC(=O)NCCC(C)(C)C)c(Cl)c3)c2cc1OC (centres unmarked) [Compound 191, 1-{2-Chloro-4-[7-(3-diethylamino-2-hydroxy-propoxy)-6-methoxy-quinolin-4-yloxy]-phenyl}-3-(3,3-dimethyl-butyl)-urea]
9.1 nM | COc1cc2c(Oc3ccc(NC(=O)NCCC(C)(C)C)c(Cl)c3)ccnc2cc1OCC(O)CN1CCCC1 (centres unmarked) [Compound 192, 1-{2-Chloro-4-[7-(2-hydroxy-3-pyrrolidin-1-yl-propoxy)-6-methoxy-quinolin-4-yloxy]-phenyl}-3-(3,3-dimethyl-butyl)-urea]
19.7 nM | COc1cc2c(Oc3ccc(NC(=O)NCCC(C)(C)C)c(Cl)c3)ccnc2cc1OCC(O)CN1CCCCCC1 (centres unmarked) [Compound 194, 1-{4-[7-(3-Azepan-1-yl-2-hydroxy-propoxy)-6-methoxy-quinolin-4-yloxy]-2-chloro-phenyl}-3-(3,3-dimethyl-butyl)-urea]
12.3 nM | CCNCC(O)COc1cc2nccc(Oc3ccc(NC(=O)NCCC(C)(C)C)c(Cl)c3)c2cc1OC (centres unmarked) [Compound 198, 1-{2-Chloro-4-[7-(3-ethylamino-2-hydroxy-propoxy)-6-methoxy-quinolin-4-yloxy]-phenyl}-3-(3,3-dimethyl-butyl)-urea]
21.1 nM | COc1cc2c(Oc3ccc(NC(=O)NCCC(C)(C)C)cc3)ccnc2cc1OCCCN1C[C@@H](C)O[C@@H](C)C1 [Compound 200, 1-(3,3-Dimethyl-butyl)-3-(4-{7-[3-(2,6-dimethyl-morpholin-4-yl)-propoxy]-6-methoxy-quinolin-4-yloxy}-phenyl)-urea]
< 10 nM | COc1cc2c(Oc3ccc(NC(=O)NCCC(C)(C)C)c(Cl)c3)ccnc2cc1OC[C@H](O)CN1CCOCC1 [Compound 201, 1-{2-Chloro-4-[7-(2-hydroxy-3-morpholin-4-yl-propoxy)-6-methoxy-quinolin-4-yloxy]-phenyl}-3-(3,3-dimethyl-butyl)-urea]
